Test results from patent US10221178B2, “Purine inhibitors of human phosphatidylinositol 3-kinase delta” (MERCK SHARP & DOHME CORP., priority 2015, dated 2019).

Key:
PI3Kdelta = PI3Kdelta (Homo sapiens (Human), UniProt O00329); test: HTRF PI3K biochemical assay, delta isoform; conditions: 0.3 nM enzyme, 100 uM ATP, 5 uM PIP2, form screened: Neutral
Procedure, shortened: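 0.3 nM PI3Kδ, pre-incubated 15 min at RT with compound (10-point 3-fold series), then reacted 1 h at RT with 100 uM ATP and 5 uM PIP2. After EDTA stop, PIP3 product detected by HTRF competition (GST-GRP1-PH, biotin-PIP3, Eu anti-GST, SA-APC), read 665/620 nm after 1 h.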

PI3Kalpha = PI3Kalpha (Homo sapiens (Human), UniProt P42336); test: HTRF PI3K biochemical assay, alpha isoform (selectivity versus PI3Kalpha); conditions: relative ratio (PI3K-alpha IC50 value/PI3K-delta IC50 value); form screened: Neutral
PI3Kalpha, sequence (P42336 whole entry, the tested form may be a part, canonical isoform): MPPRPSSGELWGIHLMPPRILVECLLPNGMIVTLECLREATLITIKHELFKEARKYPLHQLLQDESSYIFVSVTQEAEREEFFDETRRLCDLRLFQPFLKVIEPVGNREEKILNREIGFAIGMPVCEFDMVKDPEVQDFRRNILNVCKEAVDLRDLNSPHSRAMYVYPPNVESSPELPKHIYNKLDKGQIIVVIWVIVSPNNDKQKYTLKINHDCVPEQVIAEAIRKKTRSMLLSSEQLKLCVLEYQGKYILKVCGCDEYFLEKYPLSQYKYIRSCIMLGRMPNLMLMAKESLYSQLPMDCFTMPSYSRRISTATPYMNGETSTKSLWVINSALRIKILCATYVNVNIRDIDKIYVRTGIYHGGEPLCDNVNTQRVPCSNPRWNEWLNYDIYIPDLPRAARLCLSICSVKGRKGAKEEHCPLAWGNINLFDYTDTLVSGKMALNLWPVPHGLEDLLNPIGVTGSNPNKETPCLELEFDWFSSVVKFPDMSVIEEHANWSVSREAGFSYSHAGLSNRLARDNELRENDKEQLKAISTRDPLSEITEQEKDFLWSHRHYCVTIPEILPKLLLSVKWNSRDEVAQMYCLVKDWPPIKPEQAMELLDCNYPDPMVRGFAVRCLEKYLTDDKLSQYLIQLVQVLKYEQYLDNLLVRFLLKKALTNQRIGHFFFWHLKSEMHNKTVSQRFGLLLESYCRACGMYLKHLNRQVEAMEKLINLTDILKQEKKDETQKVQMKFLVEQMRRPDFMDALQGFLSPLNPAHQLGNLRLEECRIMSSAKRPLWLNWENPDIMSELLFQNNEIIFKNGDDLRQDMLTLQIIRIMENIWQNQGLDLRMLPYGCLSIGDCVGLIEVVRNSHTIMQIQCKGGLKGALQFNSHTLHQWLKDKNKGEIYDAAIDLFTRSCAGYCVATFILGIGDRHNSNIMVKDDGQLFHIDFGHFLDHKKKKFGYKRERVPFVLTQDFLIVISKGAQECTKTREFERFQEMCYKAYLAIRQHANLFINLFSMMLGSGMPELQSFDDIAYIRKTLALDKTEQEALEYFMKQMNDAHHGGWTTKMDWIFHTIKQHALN
PI3Kalpha, sequence (P27986 whole entry partner, the tested form may be a part, canonical isoform): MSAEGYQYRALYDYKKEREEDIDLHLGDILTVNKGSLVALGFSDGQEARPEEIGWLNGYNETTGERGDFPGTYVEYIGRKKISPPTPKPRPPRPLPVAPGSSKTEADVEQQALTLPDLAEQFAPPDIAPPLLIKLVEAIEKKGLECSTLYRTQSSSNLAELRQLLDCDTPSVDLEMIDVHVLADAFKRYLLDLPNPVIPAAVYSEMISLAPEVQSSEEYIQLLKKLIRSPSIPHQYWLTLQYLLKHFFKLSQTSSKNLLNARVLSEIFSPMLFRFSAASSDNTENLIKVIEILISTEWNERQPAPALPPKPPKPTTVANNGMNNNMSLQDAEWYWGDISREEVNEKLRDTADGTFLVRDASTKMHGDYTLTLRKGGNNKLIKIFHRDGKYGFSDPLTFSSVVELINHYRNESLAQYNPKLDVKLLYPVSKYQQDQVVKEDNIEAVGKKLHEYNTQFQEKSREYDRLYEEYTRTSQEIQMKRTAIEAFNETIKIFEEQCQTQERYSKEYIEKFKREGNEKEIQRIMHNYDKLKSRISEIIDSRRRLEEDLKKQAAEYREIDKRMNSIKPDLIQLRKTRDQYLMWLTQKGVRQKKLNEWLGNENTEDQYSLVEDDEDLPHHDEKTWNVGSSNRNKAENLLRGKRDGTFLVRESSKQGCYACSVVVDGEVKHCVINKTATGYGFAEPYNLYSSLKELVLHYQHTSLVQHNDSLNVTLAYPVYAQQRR
Procedure, shortened: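 Uses recombinant PI3Kalpha at 0.5 nM with 100 uM ATP and 5 uM PIP2, after a 15 min RT compound pre-incubation and a 1 h RT reaction. PIP3 product displaces biotin-PIP3 from GST-GRP1 PH domain, read as HTRF 665/620 ratio. IC50 from a 10-point dose response, corrected via a PIP3 standard curve.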

PI3Kdelta, sequence (O00329 whole entry, canonical isoform): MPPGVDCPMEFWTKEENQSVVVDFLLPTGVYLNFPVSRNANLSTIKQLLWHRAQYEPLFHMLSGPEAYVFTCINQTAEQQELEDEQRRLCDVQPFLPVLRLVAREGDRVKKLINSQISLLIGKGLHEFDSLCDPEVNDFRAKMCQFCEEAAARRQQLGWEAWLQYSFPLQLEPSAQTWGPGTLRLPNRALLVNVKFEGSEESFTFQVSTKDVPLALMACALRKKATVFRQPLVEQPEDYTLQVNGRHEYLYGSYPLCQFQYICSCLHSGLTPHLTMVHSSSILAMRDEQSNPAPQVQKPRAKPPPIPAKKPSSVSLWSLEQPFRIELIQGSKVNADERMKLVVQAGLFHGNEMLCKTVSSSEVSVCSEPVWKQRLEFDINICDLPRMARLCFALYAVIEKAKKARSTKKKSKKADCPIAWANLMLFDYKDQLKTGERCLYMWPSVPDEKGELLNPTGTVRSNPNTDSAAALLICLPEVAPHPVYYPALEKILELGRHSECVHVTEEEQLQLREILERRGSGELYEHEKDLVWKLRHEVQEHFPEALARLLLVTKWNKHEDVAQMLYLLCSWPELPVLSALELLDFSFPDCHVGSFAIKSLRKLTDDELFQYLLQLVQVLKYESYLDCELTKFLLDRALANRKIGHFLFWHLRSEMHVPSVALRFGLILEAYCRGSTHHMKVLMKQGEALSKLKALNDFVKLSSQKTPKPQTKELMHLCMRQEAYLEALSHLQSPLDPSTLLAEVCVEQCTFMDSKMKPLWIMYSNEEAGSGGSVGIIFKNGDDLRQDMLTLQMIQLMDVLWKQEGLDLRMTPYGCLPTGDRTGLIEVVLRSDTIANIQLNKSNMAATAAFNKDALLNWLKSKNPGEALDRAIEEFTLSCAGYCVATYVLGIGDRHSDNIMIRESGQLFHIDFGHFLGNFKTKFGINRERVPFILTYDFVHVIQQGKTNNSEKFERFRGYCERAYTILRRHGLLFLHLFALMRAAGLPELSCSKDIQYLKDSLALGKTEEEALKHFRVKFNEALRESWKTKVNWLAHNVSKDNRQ
PI3Kdelta, sequence (P27986 whole entry partner, canonical isoform): as the sequence (P27986 whole entry partner, the tested form may be a part, canonical isoform) above

| IC50 (PI3Kdelta) [nM] | Selectivity versus PI3Kalpha (PI3Kalpha) | SMILES |
| --- | --- | --- |
| 32 | >10 | CC[C@H](Nc1ncnc2c1nc(-c1cnc(C)nc1)n2CC)C(=O)N1CCOC[C@@H]1C [Compound 2-26, 9-ethyl-N-[(1S)-1-{[(3S)-3-methylmorpholin-4-yl]carbonyl}propyl]-8-(2-methylpyrimidin-5-yl)-9H-purin-6-amine] |
| 59 | >10 | CCn1ncc(-c2nc3c(N[C@@H](Cc4ccccc4)C(=O)N4CCOCC4)ncnc3n2C)c1C [Compound 2-2, N-[(1S)-1-benzyl-2-morpholin-4-yl-2-oxoethyl]-8-(1-ethyl-5-methyl-1H-pyrazol-4-yl)-9-methyl-9H-purin-6-amine] |
| 55 | >10 | CCn1c(-c2cnc(C)nc2)nc2c(N[C@H](C(=O)N3C[C@@H](C)O[C@@H](C)C3)C3CCCC3)ncnc21 [Compound 2-48, N-{(1S)-1-cyclopentyl-2-[(cis)-2,6-dimethylmorpholin-4-yl]-2-oxoethyl}-9-ethyl-8-(2-methylpyrimidin-5-yl)-9H-purin-6-amine] |
| 110 | >10 | CCn1c(-c2cnc(C)nc2)nc2c(N[C@@H](CC(N)=O)C(=O)N3C[C@@H](C)O[C@@H](C)C3)ncnc21 [Compound 2-41, (3S)-4-[(cis)-2,6-dimethylmorpholin-4-yl]-3-{[9-ethyl-8-(2-methylpyrimidin-5-yl)-9H-purin-6-yl]amino}-4-oxobutanamide] |
| 2.8 | >10 | CC[C@H](Nc1ncnc2c1nc(-c1ccc(C(F)(F)F)nc1)n2CC)C(=O)N1C[C@@H](C)O[C@@H](C)C1 [Compound 2-7, N-[(1S)-1-{[(cis)-2,6-dimethylmorpholin-4-yl]carbonyl}propyl]-9-ethyl-8-[6-(trifluoromethyl)pyridin-3-yl]-9H-purin-6-amine] |
| 23 | >10 | CC[C@H](Nc1ncnc2c1nc(-c1cnc(C)nc1)n2CC)C(=O)N1CCCC(OC)CC1 (mixture of isomers) [Compound 2-9, 9-ethyl-N-{(1S)-1-[(4-methoxyazepan-1-yl)carbonyl]propyl}-8-((R and S)-2-methylpyrimidin-5-yl)-9H-purin-6-amine] |
| 37 | >10 | CCn1c(-c2cnc(C)nc2)nc2c(N[C@@H](C)CC(=O)N3C[C@@H](C)O[C@@H](C)C3)ncnc21 [Compound 2-53, N-{(1S)-3-[(cis)-2,6-dimethylmorpholin-4-yl]-1-methyl-3-oxopropyl}-9-ethyl-8-(2-methylpyrimidin-5-yl)-9H-purin-6-amine] |
| 37 | >10 | CC[C@H](Nc1ncnc2c1nc(-c1cnc(C)nc1)n2CC)C(=O)N1C[C@@H]2C[C@H]1CO2 [Compound 2-31, 9-ethyl-8-(2-methylpyrimidin-5-yl)-N-{(1S)-1-[(1S,4S)-2-oxa-5-azabicyclo[2.2.1]hept-5-ylcarbonyl]propyl}-9H-purin-6-amine] |
| 6.2 | >10 | CC[C@H](Nc1ccnc2c1nc(-c1ccc(C(F)(F)F)nc1)n2CC)C(=O)N1C[C@@H](C)O[C@@H](C)C1 [Compound 3-2, N-[(1S)-1-{[(cis)-2,6-dimethylmorpholin-4-yl]carbonyl}propyl]-3-ethyl-2-[6-(trifluoromethyl)pyridin-3-yl]-3H-imidazo[4,5-b]pyridin-7-amine] |
| 590 | >10 | CCn1c(-c2cnc(C)nc2)nc2c(NC3(C(=O)N4CCC(F)(F)CC4)CC3)ncnc21 [Compound 2-3, N-{1-[(4,4-difluoropiperidin-1-yl)carbonyl]cyclopropyl}-9-ethyl-8-(2-methylpyrimidin-5-yl)-9H-purin-6-amine] |
| 99 | >10 | CC[C@H](Nc1ncnc2c1nc(C(F)F)n2CC)C(=O)N1C[C@@H](C)O[C@@H](C)C1 [Compound 2-4, 8-(difluoromethyl)-N-[(1S)-1-{[(cis)-2,6-dimethylmorpholin-4-yl]carbonyl}propyl]-9-ethyl-9H-purin-6-amine] |
| 74 | >10 | CC[C@H](Nc1ncnc2c1nc(-c1cnc(C)nc1)n2CC)C(=O)N1CC(OC)C1 [Compound 2-17, 9-ethyl-N-{(1S)-1-[(3-methoxyazetidin-1-yl)carbonyl]propyl}-8-(2-methylpyrimidin-5-yl)-9H-purin-6-amine] |
| 11 | >10 | CC[C@H](Nc1ncnc2c1nc(-c1cnc(C)nc1)n2CC)C(=O)N1CCOCC12CCC2 [Compound 2-27, 9-ethyl-8-(2-methylpyrimidin-5-yl)-N-[(1S)-1-(8-oxa-5-azaspiro[3.5]non-5-ylcarbonyl)propyl]-9H-purin-6-amine] |
| 3.7 | >10 | CCn1c(-c2cnc(C)nc2)nc2c(N[C@H](C(=O)N3C[C@@H](C)O[C@@H](C)C3)[C@@H](C)OC)ncnc21 [Compound 2-52, N-[(1S,2R)-1-{[(cis)-2,6-dimethylmorpholin-4-yl]carbonyl}-2-methoxypropyl]-9-ethyl-8-(2-methylpyrimidin-5-yl)-9H-purin-6-amine] |
| 320 | >10 | CCC(Oc1ncnc2c1nc(-c1cnn(CC)c1C)n2C)C(=O)N1CCOCC1 (racemic) [Compound 1-1, (R and S)-8-(1-ethyl-5-methyl-1H-pyrazol-4-yl)-9-methyl-6-[1-(morpholin-4-ylcarbonyl)propoxy]-9H-purine] |
| 26 | >10 | CCC[C@H](Nc1ncnc2c1nc(-c1cnc(C)nc1)n2CC)C(=O)N1C[C@@H](C)O[C@@H](C)C1 [Compound 2-45, N-[(1S)-1-{[(cis)-2,6-dimethylmorpholin-4-yl]carbonyl}butyl]-9-ethyl-8-(2-methylpyrimidin-5-yl)-9H-purin-6-amine] |
| 26 | >10 | CC[C@H](Nc1ncnc2c1nc(-c1cnc(C)nc1)n2CC)C(=O)N1CC(=O)N(C)C(C)C1 (single isomer, unassigned) [Compound 4-6, (S or R)-4-[(2S)-2-{[9-ethyl-8-(2-methylpyrimidin-5-yl)-9H-purin-6-yl]amino}butanoyl]-1,6-dimethylpiperazin-2-one] |
| 60 | >10 | CC[C@H](Nc1ncnc2c1nc(-c1cnc(C)nc1)n2CC)C(=O)N1CC(C(F)F)C1 [Compound 2-11, N-[(1S)-1-{[3-(difluoromethyl)azetidin-1-yl]carbonyl}propyl]-9-ethyl-8-(2-methylpyrimidin-5-yl)-9H-purin-6-amine] |
| 12 | >10 | CCn1c(-c2cnc(C)nc2)nc2c(N[C@@H](C)C(=O)N3C[C@@H](C)O[C@@H](C)C3)ncnc21 [Compound 2-39, N-{(1S)-2-[(cis)-2,6-dimethylmorpholin-4-yl]-1-methyl-2-oxoethyl}-9-ethyl-8-(2-methylpyrimidin-5-yl)-9H-purin-6-amine] |
| 39 | >10 | CCC(Nc1ncnc2c1nc(-c1cnc(C)nc1)n2CC)C(=O)N1CCc2c(c(C(C)C)nn2C)C1 (single isomer, unassigned) [Compound 5-2, (S or R)-9-ethyl-N-(1-{[1-methyl-3-(1-methylethyl)-1,4,6,7-tetrahydro-5H-pyrazolo[4,3-c]pyridin-5-yl]carbonyl}propyl)-8-(2-methylpyrimidin-5-yl)-9H-purin-6-amine] |
| 62 | >10 | CC[C@H](Nc1ncnc2c1nc(-c1cnc(C)nc1)n2CC)C(=O)N1CCC(OCCOC)CC1 [Compound 2-10, 9-ethyl-N-[(1S)-1-{[4-(2-methoxyethoxy)piperidin-1-yl]carbonyl}propyl]-8-(2-methylpyrimidin-5-yl)-9H-purin-6-amine] |
| 27 | >10 | CCn1c(-c2cnc(C)nc2)nc2c(N[C@@H](COC)C(=O)N3C[C@@H](C)O[C@@H](C)C3)ncnc21 [Compound 2-46, N-[(1S)-2-[(cis)-2,6-dimethylmorpholin-4-yl]-1-(methoxymethyl)-2-oxoethyl]-9-ethyl-8-(2-methylpyrimidin-5-yl)-9H-purin-6-amine] |
